# Like-named read-outs stand apart in the source and are kept apart here.
# Tests used:
# [1] = test system: NCIH-460 (human lung cells); assay: MTT cytotoxicity, NCIH-460 cells; type: cell-based; conditions: three independent experiments, read-out: Cytotoxic activity IC50 (95% CI) NCIH-460
# Experimental: (§1) Compounds were evaluated for antitumor activity in cell culture in vitro using several human cancer cell lines obtained from the National Cancer Institute, NCI (Bethesda, MD, USA). […] The L929 cells were cultivated under standard conditions in DMEM with Earle’s salts. […] At the end of the incubation time (72 h), the plates were centrifuged and the medium was replaced by fresh medium (200 μL) containing 0.5 mg/mL MTT. After 3 h, the MTT formazan product was dissolved in DMSO (150 μL) and the absorbance was measured using a multiplate reader (Spectra Count, Packard, ON, Canada). The impact of compounds on cell proliferation was quantified as the percentage of control absorbance of the reduced dye at 550 nm. All cell culture based studies were performed in triplicate. All cells were mycoplasma-free.
# [2] = test system: HL-60 (human promyelocytic leukemia cells); assay: MTT cytotoxicity, HL-60 cells; type: cell-based; conditions: three independent experiments, read-out: Cytotoxic activity IC50 (95% CI) HL-60
# Experimental: as §1
# [3] = test system: SF295 (human glioblastoma cells); assay: MTT cytotoxicity, SF295 cells; type: cell-based; conditions: three independent experiments, read-out: Cytotoxic activity IC50 (95% CI) SF295
# Experimental: as §1
# [4] = test system: HCT-116 (human colon carcinoma cells); assay: MTT cytotoxicity, HCT-116 cells; type: cell-based; conditions: three independent experiments, read-out: Cytotoxic activity IC50 (95% CI) HCT-116
# Experimental: as §1
# [5] = test system: L929 (murine fibroblasts normal cells); assay: MTT cytotoxicity, L929 normal cells; type: cell-based, mouse; conditions: normal cell line, 72 h exposure, three independent experiments, read-out: Cytotoxic activity IC50 (95% CI) L929
# Experimental: as §1
# [6] = test system: PC3 (human prostate cancer cells); assay: MTT cytotoxicity, PC3 cells; type: cell-based; conditions: Homo sapiens, PC-3, 72 h exposure, three independent experiments, read-out: Cytotoxic activity IC50 (95% CI) PC3
# Experimental: as §1
# [7] = MTT cytotoxicity, L929 normal cells; type: cell-based, mouse; conditions: mouse, normal cell line, 72 h exposure, three independent experiments, read-out: Cytotoxic activity IC50 (95% CI) L929
# Experimental: as §1
# [8] = Homo sapiens, NCI-H460, 72 h exposure
# [9] = Homo sapiens, HL-60, 72 h exposure
# [10] = Homo sapiens, SF-295, 72 h exposure
# [11] = Homo sapiens, HCT-116, 72 h exposure
Molecule,IC50 ([1]; 72 h exposure),IC50 ([2]; 72 h exposure),IC50 ([3]; 72 h exposure),IC50 ([4]; 72 h exposure),IC50 [5],"IC50 [1, 8]","IC50 [2, 9]","IC50 [3, 10]","IC50 [4, 11]",IC50 [6],IC50 at 72 h [7],melting point
"4-(4-((Benzylselanyl)methyl)-1H-1,2,3-triazol-1-yl)-3-bromo-2,2-dimethyl-3,4-dihydro-2H-benzo[h]-chromene-5,6-dione [Compound 20]",3.26 µM,1 µM,3.12 µM,2.03 µM,0.61 µM,–,–,–,–,–,–,–
"O=C1C=C([Se]c2ccccc2)C(=O)c2ccccc21 [Compound 2, 2-(Phenylselanyl)naphthalene-1,4-dione]",–,–,–,–,–,> 10 µM,1.96 µM,> 10 µM,> 10 µM,> 10 µM,> 10 µM,–
"COc1ccc([Se]C2=CC(=O)c3ccccc3C2=O)cc1 [Compound 3, 2-((4-Methoxyphenyl)selanyl)naphthalene-1,4-dione]",–,–,–,–,–,> 10 µM,4.68 µM,> 10 µM,> 10 µM,> 10 µM,> 10 µM,140.7 to 148.3 °C
"O=C1C=C([Se]c2ccc(Cl)cc2)C(=O)c2ccccc21 [Compound 4, 2-((4-Chlorophenyl)selanyl)naphthalene-1,4-dione]",–,–,–,–,–,> 10 µM,2.25 µM,> 10 µM,> 10 µM,> 10 µM,> 10 µM,154.8 to 155.7 °C
"O=C1C=C([Se]c2ccc(F)cc2)C(=O)c2ccccc21 [Compound 5, 2-((4-Fluorophenyl)selanyl)naphthalene-1,4-dione]",–,–,–,–,–,> 10 µM,2.16 µM,> 10 µM,> 10 µM,> 10 µM,> 10 µM,139.2 to 139.9 °C
"COC1=C(CN=[N+]=[N-])C(=O)c2ccccc2C1=O [Compound 8, 2-(Azidomethyl)-3-methoxynaphthalene-1,4-dione]",–,–,–,–,–,> 10 µM,> 10 µM,> 10 µM,> 10 µM,> 10 µM,> 10 µM,–
"COC1=C(Cn2cc(-c3ccccc3)nn2)C(=O)c2ccccc2C1=O [Compound 9, 2-Methoxy-3-((4-phenyl-1H-1,2,3-triazol-1-yl)methyl)naphthalene-1,4-dione]",–,–,–,–,–,> 10 µM,5.39 µM,> 10 µM,> 10 µM,> 10 µM,> 10 µM,103.8 to 104.7 °C
"COC1=C(Cn2cc(-c3ccc([N+](=O)[O-])cc3)nn2)C(=O)c2ccccc2C1=O [Compound 10, 2-Methoxy-3-((4-(4-nitrophenyl)-1H-1,2,3-triazol-1-yl)methyl)naphthalene-1,4-dione]",–,–,–,–,–,> 10 µM,> 10 µM,> 10 µM,> 10 µM,> 10 µM,> 10 µM,205.8 to 206.7 °C
"COC1=C(Cn2cc(-c3ccc(OC)cc3)nn2)C(=O)c2ccccc2C1=O [Compound 11, 2-Methoxy-3-((4-(4-methoxyphenyl)-1H-1,2,3-triazol-1-yl)methyl)naphthalene-1,4-dione]",–,–,–,–,–,> 10 µM,2.32 µM,> 10 µM,> 10 µM,> 10 µM,> 10 µM,149.3 to 150.7 °C
"COC1=C(Cn2cc(-c3ccc(C)cc3)nn2)C(=O)c2ccccc2C1=O [Compound 12, 2-Methoxy-3-((4-(p-tolyl)-1H-1,2,3-triazol-1-yl)methyl)naphthalene-1,4-dione]",–,–,–,–,–,> 10 µM,> 10 µM,> 10 µM,> 10 µM,> 10 µM,> 10 µM,123.1 to 124.5 °C
"COC1=C(Cn2cc(-c3ccc(Br)cc3)nn2)C(=O)c2ccccc2C1=O [Compound 13, 2-((4-(4-Bromophenyl)-1H-1,2,3-triazol-1-yl)methyl)-3-methoxynaphthalene-1,4-dione]",–,–,–,–,–,> 10 µM,> 10 µM,> 10 µM,> 10 µM,> 10 µM,> 10 µM,174.1 to 175 °C
"COC1=C(Cn2cc(C[Se]c3ccccc3)nn2)C(=O)c2ccccc2C1=O [Compound 14, 2-Methoxy-3-((4-((phenylselanyl)methyl)-1H-1,2,3-triazol-1-yl)methyl)naphthalene-1,4-dione]",–,–,–,–,–,> 10 µM,> 10 µM,> 10 µM,> 10 µM,> 10 µM,> 10 µM,69 to 71 °C
"COC1=C(Cn2cc(C[Se]c3ccc(OC)cc3)nn2)C(=O)c2ccccc2C1=O [Compound 15, 2-Methoxy-3-((4-(((4-methoxyphenyl)selanyl)methyl)-1H-1,2,3-triazol-1-yl)methyl)naphthalene-1,4-dione]",–,–,–,–,–,> 10 µM,> 10 µM,> 10 µM,> 10 µM,> 10 µM,> 10 µM,–
"CC1(C)OC2=C(C(=O)C(=O)c3ccccc32)C(n2cc(C[Se]c3ccc(Cl)cc3)nn2)C1Br (stereo not drawn) [Compound 17, 3-Bromo-4-(4-(((4-chlorophenyl)selanyl)methyl)-1H-1,2,3-triazol-1-yl)-2,2-dimethyl-3,4-dihydro-2H-benzo[h]chromene-5,6-dione]",–,–,–,–,–,2.06 µM,0.81 µM,2.6 µM,> 8 µM,2.03 µM,0.52 µM,185.3 to 187.1 °C
"CC1(C)OC2=C(C(=O)C(=O)c3ccccc32)C(n2cc(C[Se]c3ccc(F)cc3)nn2)C1Br (stereo not drawn) [Compound 18, 3-Bromo-4-(4-(((4-fluorophenyl)selanyl)methyl)-1H-1,2,3-triazol-1-yl)-2,2-dimethyl-3,4-dihydro-2H-benzo[h]chromene-5,6-dione]",–,–,–,–,–,1.32 µM,0.59 µM,1.48 µM,0.37 µM,1.06 µM,0.36 µM,187.1 to 190 °C
"COc1ccc([Se]Cc2cn(C3C4=C(OC(C)(C)C3Br)c3ccccc3C(=O)C4=O)nn2)cc1 (stereo not drawn) [Compound 19, 3-Bromo-4-(4-(((4-methoxyphenyl)selanyl)methyl)-1H-1,2,3-triazol-1-yl)-2,2-dimethyl-3,4-dihydro-2H-benzo[h]chromene-5,6-dione]",–,–,–,–,–,2.33 µM,1.28 µM,1.75 µM,> 8 µM,1.55 µM,0.68 µM,113.5 to 114.6 °C
"CC1(C)OC2=C(C(=O)C(=O)c3ccccc32)C(n2cc(C[Se]c3cccs3)nn2)C1Br (stereo not drawn) [Compound 22, 3-Bromo-2,2-dimethyl-4-(4-((thiophen-2-ylselanyl)methyl)-1H-1,2,3-triazol-1-yl)-3,4-dihydro-2H-benzo[h]chromene-5,6-dione]",–,–,–,–,–,2.75 µM,0.53 µM,2.13 µM,> 8 µM,2.47 µM,3.16 µM,104.3 to 108.6 °C
"CCCC[Se]Cc1cn(C2C3=C(OC(C)(C)C2Br)c2ccccc2C(=O)C3=O)nn1 (stereo not drawn) [Compound 23, 3-Bromo-4-(4-((butylselanyl)methyl)-1H-1,2,3-triazol-1-yl)-2,2-dimethyl-3,4-dihydro-2H-benzo[h]chromene-5,6-dione]",–,–,–,–,–,2.64 µM,0.71 µM,3.43 µM,0.97 µM,1.64 µM,2.12 µM,123.1 to 124.4 °C
"CC1(C)OC2=C(C(=O)C(=O)c3ccccc32)C(n2cc(CSc3ccccc3)nn2)C1Br (stereo not drawn) [Compound 24, 3-Bromo-2,2-dimethyl-4-(4-((phenylthio)methyl)-1H-1,2,3-triazol-1-yl)-3,4-dihydro-2H-benzo[h]chromene-5,6-dione]",–,–,–,–,–,4.91 µM,1.94 µM,2.34 µM,4.38 µM,2.1 µM,0.84 µM,119.5 to 121.4 °C
"COc1cccc2c1C(=O)c1c(O)c3c(c(O)c1C2=O)C[C@@](O)(C(=O)CO)C[C@@H]3O[C@H]1C[C@H](N)[C@H](O)[C@H](C)O1 [DOXO, Doxorubicin, reference compound]",–,–,–,–,–,–,0.02 µM,–,0.21 µM,0.76 µM,1.72 µM,–
